Patent publication US12209096B2, “Compounds and compositions for inducing chondrogenesis” (NOVARTIS AG, priority 2017, dated 2025)
Where two headings read alike, the source gives them in different places.

Legend:
C3H10T1/2 cell line = assay: alkaline phosphatase assay in C3H10T1/2; format: cell-based; settings: Mus musculus, C3H 10T1/2, 144 h, alkaline phosphatase assay in C3H10T1/2, 6 days; for Emax: read-out: (D) % Efficacy; for IC50: read-out: (D) IC50
Method: To initiate differentiation in C3H10T1/2, Clone 8 (ATCC cat #CCL-226), 4,000 cells were plated/well in 384 Perkin Elmer CellCarrier Ultra plate in DMEM/High glucose (HyClone cat #SH30022.01) containing 10% FBS and 1× Antibiotic/Antimycotic (HyClone cat #SV30079.01). After 24 hours the test compound was then added to each well at the indicated dose. The cultures were grown at 37° C. for 6 days.
To detect the presence of hypertrophic cells, C3H10T1/2 were fixed with 4% paraformaldehyde and Hoeschst dye for 20 minutes, rinsed in PBS, then stained with Fast Blue RR Salt with Naphthol AS-MX Phosphate Alkaline Solution.
The ALP staining was imaged by fluoresecent microscopy, using the 561 wavelength, and/or quantified by high content imagining with the ImageXpress Micro Confocal (Molecular Devices, Sunnyvale, CA). Data analyses were performed with the customized multiwavelength cell-scoring application looking at the number of ALP positive cells per well.

NHACs = assay: calcium flux assay; format: cell-based, human; settings: for Emax: read-out: (A) % Efficacy
How it was run: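 Normal human articular chondrocytes plated at 2000 cells/well and loaded 24 h later with Calcium 5 dye in HBSS/HEPES with 5 mM probenecid for 1 h at room temperature. Test compound added at indicated dose; fluorescence (ex 470–495/em 515–575 nm) recorded on FLIPR before and after addition.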

Compound | EC50 (NHACs; Homo sapiens) [µM] | Emax (NHACs; Homo sapiens) [%] | further results
O=C(Nc1ccc(Cl)c(Cl)c1)[C@H]1[C@H](c2ccnc(C(F)(F)F)c2)[C@@H]2O[C@H]1C[C@H]2O (single isomer, unassigned) [Example 145b] |  |  | Emax (C3H10T1/2 cell line): 83%; IC50 (C3H10T1/2 cell line): 11 µM
O=C(Nc1ccc(Cl)c(Cl)c1)[C@@H]1[C@@H](c2ccnc(C(F)(F)F)c2)[C@H]2O[C@@H]1C[C@@H]2O (single isomer, unassigned) [Example 145a] |  |  | Emax (C3H10T1/2 cell line): 100%; IC50 (C3H10T1/2 cell line): 1.2 µM
O=C(Nc1cnc(Cl)c(Cl)c1)[C@@H]1[C@@H](c2ccnc(F)c2)[C@H]2O[C@@H]1C[C@@H]2O (racemic) [Example 90, rac-(1R,2R,3S,4R,5S)—N-(5,6-dichloropyridin-3-yl)-3-(2-fluoropyridin-4-yl)-5-hydroxy-7-oxabicyclo[2.2.1]heptane-2-carboxamide] | > 50 | 45 | 
Cc1ccc([C@H]2[C@H]3O[C@H](C[C@H]3F)[C@@H]2C(=O)Nc2ccc(Cl)c(Cl)c2)cn1 [Example 164, (1R,2R,3S,4R,5R)—N-(3,4-dichlorophenyl)-5-fluoro-3-(6-methylpyridin-3-yl)-7-oxabicyclo[2.2.1]heptane-2-carboxamide] | > 50 | 0 | 
O=C(Nc1cccc(C(F)(F)F)c1)[C@H]1[C@@H]2O[C@@H]([C@@H](O)[C@H]2O)[C@@H]1c1ccncc1 [Example 159, (1S,2R,3S,4R,5S,6R)-5,6-dihydroxy-3-(pyridin-4-yl)-N-(3-(trifluoromethyl)phenyl)-7-oxabicyclo[2.2.1]heptane-2-carboxamide] | > 50 | 11 | 
Cc1cc([C@H]2[C@H]3O[C@H](C[C@H]3F)[C@@H]2C(=O)Nc2ccc(OC(F)(F)F)c(F)c2)ccn1 [Example 100, (1R,2R,3S,4R,5R)-5-fluoro-N-(3-fluoro-4-(trifluoromethoxy)phenyl)-3-(2-methylpyridin-4-yl)-7-oxabicyclo[2.2.1]heptane-2-carboxamide] | 18 | 310 | 
O=C(Nc1ccc(Cl)c(Cl)c1)[C@H]1[C@@H]2O[C@@H]([C@H]3C[C@H]32)[C@@H]1c1cnc(F)nc1 [Example 129, (1S,2S,4R,5R,6R,7S)—N-(3,4-dichlorophenyl)-7-(2-fluoropyrimidin-5-yl)-8-oxatricyclo[3.2.1.0^2,4]octane-6-carboxamide] | 10 | 146 | 
Cc1ccc([C@H]2[C@H]3O[C@H](C[C@@H]3F)[C@H]2C(=O)Nc2ccc(Cl)c(Cl)c2)cn1 [Example 21, (1R,2S,3S,4R,5S)-N-(3,4-dichlorophenyl)-5-fluoro-3-(6-methylpyridin-3-yl)-7-oxabicyclo[2.2.1]heptane-2-carboxamide] | 27 | 159 | 
O=C(Nc1ccc(Cl)c(Cl)c1)[C@H]1[C@@H]2O[C@@H]([C@H]3C[C@H]32)[C@@H]1c1cncnc1 (single isomer, unassigned) [Example 126a] | 5.4 | 233 | 
Cc1cc([C@@H]2[C@@H](C(=O)Nc3ccc(Cl)c(Cl)c3)[C@@H]3O[C@H]2C[C@@H]3F)ccn1 (single isomer, unassigned) [Example 93] | > 50 | 7 | 
Cc1cc([C@@H]2[C@@H]3O[C@@H](C[C@H]3O)[C@@H]2C(=O)Nc2cnc(Cl)c(Cl)c2)ccn1 (single isomer, unassigned) [Example 7] | > 50 | 0 | 
CN(C)[C@@H]1C[C@H]2O[C@@H]1[C@H](c1ccnc(F)c1)[C@H]2C(=O)Nc1ccc(Cl)c(Cl)c1 [Example 172, (1R,2R,3S,4R,5R)—N-(3,4-dichlorophenyl)-5-(dimethylamino)-3-(2-fluoropyridin-4-yl)-7-oxabicyclo[2.2.1]heptane-2-carboxamide] | 16 | 177 | 
Cc1cc([C@H]2[C@H]3O[C@H](C[C@@H]3O)[C@@H]2C(=O)Nc2ccc(Cl)c(Cl)c2)ccn1 (racemic) [Example 77, rac-(1R,2R,3S,4R,5S)—N-(3,4-dichlorophenyl)-5-hydroxy-3-(2-methylpyridin-4-yl)-7-oxabicyclo[2.2.1]heptane-2-carboxamide] | 26 | 49 | 
O=C(Nc1ccc(Cl)c(Cl)c1)[C@H]1[C@@H]2O[C@@H]([C@H]3C[C@H]32)[C@@H]1c1cnc(N2CCOCC2)nc1 [Example 133, (1S,2S,4R,5R,6R,7S)—N-(3,4-dichlorophenyl)-7-(2-morpholinopyrimidin-5-yl)-8-oxatricyclo[3.2.1.0^2,4]octane-6-carboxamide] | 25 | 158 | 
(1S,2S,4R,5R,6S,7S)-N-(3,4-dichlorophenyl)-7-(2-methylpyridin-4-yl)-8-oxatricyclo[3.2.1.0^2,4]octane-6-carboxamide [Example 23] |  |  | (A) % Efficacy (NHACs): 54%; EC50 (NHACs): > 50 µM
COc1cc([C@H]2[C@H]3O[C@H]([C@@H]4C[C@@H]43)[C@@H]2C(=O)Nc2cnc(Cl)c(Cl)c2)ccn1 [Example 76, (1S,2S,4R,5R,6R,7S)—N-(5,6-dichloropyridin-3-yl)-7-(2-methoxypyridin-4-yl)-8-oxatricyclo[3.2.1.0^2,4]octane-6-carboxamide] | 5.8 | 123 | 
O=C(Nc1ccc(Cl)c(Cl)c1)[C@@H]1[C@@H]2O[C@@H]([C@H]3C[C@H]32)[C@@H]1c1cnc(F)nc1 [Example 36, (1S,2S,4R,5R,6S,7S)—N-(3,4-dichlorophenyl)-7-(2-fluoropyrimidin-5-yl)-8-oxatricyclo[3.2.1.0^2,4]octane-6-carboxamide] | 8.6 | 124 | 
Cc1cc([C@H]2[C@H]3O[C@H](C[C@H]3F)[C@@H]2C(=O)Nc2ccn(C)n2)ccn1 [Example 101, (1R,2R,3S,4R,5R)-5-fluoro-N-(1-methyl-1H-pyrazol-3-yl)-3-(2-methylpyridin-4-yl)-7-oxabicyclo[2.2.1]heptane-2-carboxamide] | 29 | 62 | 
COc1cc([C@H]2[C@H]3O[C@H]([C@@H]4C[C@@H]43)[C@H]2C(=O)Nc2ccc(Cl)c(Cl)c2)ccn1 [Example 24, (1S,2S,4R,5R,6S,7S)-N-(3,4-dichlorophenyl)-7-(2-methoxypyridin-4-yl)-8-oxatricyclo[3.2.1.0^2,4]octane-6-carboxamide] | 11 | 71 | 
O=C(Nc1cccc(C(F)(F)F)c1)[C@@H]1[C@@H]2O[C@@H](C[C@H]2O)[C@@H]1c1ccncc1 [Example 12, (1S,2S,3S,4S,6R)-6-hydroxy-3-(pyridin-4-yl)-N-[3-(trifluoromethyl)phenyl]-7-oxabicyclo[2.2.1]heptane-2-carboxamide] | > 50 | 22 | 
O=C(Nc1ccc(Cl)c(Cl)c1)[C@H]1[C@H]2O[C@H]([C@@H]3C[C@@H]32)[C@H]1c1ccnc(F)c1F (single isomer, unassigned) [Example 30] | 10 | 133 | 
Cc1cc([C@H]2[C@H]3O[C@H](C[C@@H]3O)[C@@H]2C(=O)Nc2cccc(C(F)(F)F)c2)ccn1 [Example 85, (1R,2R,3S,4R,5S)-5-hydroxy-3-(2-methylpyridin-4-yl)-N-(3-(trifluoromethyl)phenyl)-7-oxabicyclo[2.2.1]heptane-2-carboxamide] | > 50 | 56 | 
Cc1cc([C@H]2[C@H]3O[C@H](C[C@@H]3O)[C@H]2C(=O)Nc2cnc(C)c(Cl)c2)ccn1 [Example 5, (1R,2S,3S,4R,5S)-N-(5-chloro-6-methylpyridin-3-yl)-5-hydroxy-3-(2-methylpyridin-4-yl)-7-oxabicyclo[2.2.1]heptane-2-carboxamide] | > 50 | 18 | 
COc1ccc(NC(=O)[C@@H]2[C@@H]3O[C@@H]([C@H]4C[C@H]43)[C@@H]2c2ccc(C)nc2)cn1 (racemic) [Example 2, rac-(1S,2S,4R,5R,6S,7S)—N-(6-methoxypyridin-3-yl)-7-(6-methylpyridin-3-yl)-8-oxatricyclo[3.2.1.0^2,4]octane-6-carboxamide] | 0.3 | 45 | 
O=C(Nc1cnc(Cl)c(Cl)c1)[C@@H]1[C@@H](c2ccncc2)[C@H]2O[C@@H]1C[C@@H]2O [Example 87, (1R,2R,3S,4R,5S)—N-(5,6-dichloropyridin-3-yl)-5-hydroxy-3-(pyridin-4-yl)-7-oxabicyclo[2.2.1]heptane-2-carboxamide] | > 50 | 14 | 
O=C(Nc1ccc(Cl)c(Cl)c1)[C@H]1[C@@H]2O[C@@H]([C@H]3C[C@H]32)[C@@H]1c1ccnc(F)c1 [Example 119, (1S,2S,4R,5R,6R,7S)—N-(3,4-dichlorophenyl)-7-(2-fluoropyridin-4-yl)-8-oxatricyclo[3.2.1.0^2,4]octane-6-carboxamide] | 25 | 149 | 
Cc1cc([C@H]2[C@H]3O[C@H]([C@H](O)[C@@H]3O)[C@@H]2C(=O)Nc2cccc(C(F)(F)F)c2)ccn1 [Example 158, (1S,2R,3S,4R,5S,6R)-5,6-dihydroxy-3-(2-methylpyridin-4-yl)-N-(3-(trifluoromethyl)phenyl)-7-oxabicyclo[2.2.1]heptane-2-carboxamide] | > 50 | 31 | 
